Experimental data taken from patent publication US4952405A, “Method of treating M. avium infection” (Liposome Technology, Inc., priority 1988, dated 1990).
“Also recorded” adds a separate entry of the source.

What was measured:
serotype 4 strain of MAC = conditions: Yajko; cited from earlier work
MAC 101 serotype 1 [1] = test: MIC against MAC 101 serotype 1 in culture; format: cell-based, Mycobacterium avium complex; conditions: strain 101 serotype 1, bacterial culture
Experimental: Among the aminoglycosides, amikacin has been used for treating MAC infection due to its relatively low minimum inhibitory concentration, particularly in the case of certain MAC serotypes. […] Gentamicin would therefore not be expected to be effective in vivo since the toxic level of gentamicin is about 12 μg/ml in the blood, and therefore it is not possible to maintain patients at the inhibitory dose for sustained therapeutic periods. It would be desirable to treat M. avium infection in humans with gentamicin, however, because of the relatively low cost of the drug.

[2] = Renal clearance / drug excretion, free vs liposomal; format: in vivo; conditions: after 4 days, mice
Experimental: To examine the difference in drug clearance between free aminoglycoside and an aminoglycoside-liposome composition, free amikacin and amikacin-liposomes were administered to groups of mice, as above, and the amount of drug excreted by the animals over a several-day period was examined.

MAC 101 (serotype 1) [3] = test: Efficacy against MAC infection in blood of beige mice; format: in vivo, Mycobacterium avium complex; beige mice; conditions: for effect on viable MAC units in blood: 0.2 mg and 1.0 mg doses, five I.V. injections, day 7 to 22, FIGS. 2A, 2B; for effect on MAC in the blood: higher dose (1.0 mg)
Experimental: (§1) Briefly, the animals were infected by I.V. injection of MAC, then treated with control, gentamicin, or gentamicin-liposome formulations 7 days later, with a total of five intravenous injections being given over a 9-day treatment period. The level of viable MAC units (cfu's) in the blood was examined at day 7 (before treatment), day 16 (immediately after the five treatment doses) and day 22. […] For both aminoglycoside drugs, dosages of 0.2 mg and 1.0 mg drug were given.
(§2) Immune deficient "beige" mice (Young, 1986) were infected intravenously with 5×10^6 of MAC 101 (serotype 1) on day 0. After 7 days, blood samples were drawn to quantitate the organisms in the blood prior to treatment. […] On the 16th day, the treated mice were bled and the number of viable MAC units in blood was determined. A week later (day 22), the mice were bled again and sacrificed. The liver and spleen were homogenized and the viable MAC were cultured in 7H10 agar for 10 days for colony counts.

MAC 101 serotype 1 [4] = conditions: cited from earlier work
[5] = cited from earlier work
[6] = Tolerability of higher gentamicin dose in MAC-infected mice; format: in vivo; conditions: about 4 mg per 20 gm mouse
Text: This was confirmed by attempting to further reduce MAC infection by administering higher gentamicin dose.

MAC 101 (serotype 1) [7] = test: Efficacy against MAC infection in liver and spleen of beige mice; format: in vivo, Mycobacterium avium complex; beige mice; conditions: for bacteriocidal effect in RES organs (liver, spleen), words: day 22, FIGS. 3A, 3B
Experimental: as §1, §2

Row | Compound | MIC (serotype 4 strain of MAC) [µg/mL] | relative activity / MIC in MAC culture, amikacin vs gentamicin (MAC 101 serotype 1 [1]) | drug excreted ([2]; 5760 min) | dose excreted at 96 h ([2]; mouse, in vivo, iv) [%] | effect on viable MAC units in blood (MAC 101 (serotype 1) [3]) | effect on viable MAC units in blood (MAC 101 (serotype 1) [3]; listed as free amikacin) | effect on MAC in the blood (MAC 101 (serotype 1) [3]) | minimum inhibitory concentration (MIC) (MAC 101 serotype 1 [4]) [µg/mL] | toxic level in the blood [5] | tolerability / animal deaths [6] | effect on viable MAC units in blood (MAC 101 (serotype 1) [3]; listed as Free gentamicin) | effect on viable MAC units in blood (MAC 101 (serotype 1) [3]; listed as free gentamicin) | effect on MAC in the spleen (MAC 101 (serotype 1) [7]; both doses) | bacteriocidal effect in RES organs (liver, spleen), words (MAC 101 (serotype 1) [7]; listed as Free gentamicin) | bacteriocidal effect in RES organs (liver, spleen), words (MAC 101 (serotype 1) [7]; listed as free gentamicin) | effect on MAC in the liver (MAC 101 (serotype 1) [7]; high dose (1.0 mg/kg as printed)) | effect on MAC in the liver (MAC 101 (serotype 1) [7]; low dose (0.2 mg/kg as printed))
1 | NCC[C@H](O)C(=O)N[C@@H]1C[C@H](N)[C@@H](O[C@H]2O[C@H](CN)[C@@H](O)[C@H](O)[C@H]2O)[C@H](O)[C@H]1O[C@H]1O[C@H](CO)[C@@H](O)[C@H](N)[C@H]1O [amikacin] | 16 to 32 | nearly an order of magnitude less than that of gentamicin | about 80% | ~80 | largely ineffective | Qualitatively similar results | significant inhibitory effect on MAC in the blood | 2 to 4 |  |  |  |  |  |  |  |  | 
2 | gentamicin | 16 to 32 | substantially less active than free amikacin |  |  |  |  | not gentamicin | 36 | about 12 μg/ml | large percentage of animal deaths | no measurable activity against MAC in the bloodstream | no appreciable inhibitory effect; also recorded: No appreciable inhibition; also recorded: largely ineffective | moderate killing | only modest activity against infection in RES organs | about the same degree of bacteriocidal action as free amikacin | moderate killing activity | inhibitory effect on the growth of MAC
